This is an account of results in patent US10351546B2, “Pyridin-3-yl acetic acid derivatives as inhibitors of human immunodeficiency virus replication” (priority 2015, dated 2019).

Where two headings read alike, the source gives them in different places. A value given as a limit tells only on which side of the number the result lay.

This test has as its system NL-RLuc virus. As to the kind of experiment: Inhibition of HIV replication (NL-RLuc luciferase reporter virus in MT-2 cells). In kind it is cell-based. Put shortly:
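The read-out is Renilla luciferase expressed by replication-competent NL-RLuc (nef partly replaced), measured 5 days after infection of MT-2 cells grown with compound dilutions in 10% FBS RPMI. Median effect equation gives EC50 from ≥2 runs; A ≤100 nM, B 100 nM–1 uM, C >1 uM.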
On the technique in general: In a reporter assay the amount or activity of a reporter protein is the signal.

The mark [1] stands for this setting: Human immunodeficiency virus 1, MT2, 120 h, read-out: Activity.
[2] abbreviates: Human immunodeficiency virus 1, MT2, 120 h, read-out: EC50 μM.
Setting [3] is: read-out: Activity, NL-RLuc virus in MT-2 cells, 5 days of incubation, luciferase readout.

In the case of `Cc1cc(F)ccc1CN1CCc2cc(-c3c(CN4[C@@H]5CC[C@H]4CN(C)C5)nc(C)c([C@H](OC(C)(C)C)C(=O)O)c3N3CCC(C)(C)CC3)ccc2C1` [Example 138, (S)-2-(tert-Butoxy)-2-(4-(4,4-dimethylpiperidin-1-yl)-5-(2-(4-fluoro-2-methylbenzyl)-1,2,3,4-tetrahydroisoquinolin-6-yl)-2-methyl-6-(((1R,5S)-3-methyl-3,8-diazabicyclo[3.2.1]octan-8-yl)methyl)pyridin-3-yl)acetic acid], the EC50 under setting [1] is below 0.1 µM. Consider `Cc1nc(COc2ccc(Cl)cc2)c(-c2ccc(OCCc3ccc(F)cc3)cc2)c(N2CCC(C)(C)CC2)c1[C@H](OC(C)(C)C)C(=O)O` [Example 6, (S)-2-(tert-butoxy)-2-(6-((4-chlorophenoxy)methyl)-4-(4,4-dimethylpiperidin-1-yl)-5-(4-(4-fluorophenethoxy)phenyl)-2-methylpyridin-3-yl)acetic acid], for which the EC50 by setting is: under setting [1], below 0.1 µM; under setting [2], 0.02 µM. With `CCOCCOCc1nc(C)c([C@H](OC(C)(C)C)C(=O)O)c(N2CCC(C)(C)CC2)c1Br` [Example 37, (S)-2-(5-bromo-4-(4,4-dimethylpiperidin-1-yl)-6-((2-ethoxyethoxy)methyl)-2-methylpyridin-3-yl)-2-(tert-butoxy)acetic acid], the EC50 under setting [1] was below 0.1 µM.

Take `Cc1cc(F)ccc1CN1CCc2cc(-c3c(CN4CCCCC4)nc(C)c([C@H](OC(C)(C)C)C(=O)O)c3N3CCC(C)(C)CC3)ccc2C1` [Example 119, (S)-2-(tert-Butoxy)-2-(4-(4,4-dimethylpiperidin-1-yl)-5-(2-(4-fluoro-2-methylbenzyl)-1,2,3,4-tetrahydroisoquinolin-6-yl)-2-methyl-6-(piperidin-1-ylmethyl)pyridin-3-yl)acetic acid]: the EC50 under setting [1] was below 0.1 µM.

As for `Cc1cc(F)ccc1CN1CCc2cc(-c3c(C(C)N(C)CC4CCOCC4)nc(C)c([C@H](OC(C)(C)C)C(=O)O)c3N3CCC(C)(C)CC3)ccc2C1` (single isomer, unassigned) [Example 151], the EC50 under setting [3] was below 0.1 µM. `Cc1cccc(Cl)c1CN1CCc2cc(-c3c(N)nc(C)c([C@H](OC(C)(C)C)C(=O)O)c3N3CCC(C)(C)CC3)ccc2C1` [Example 164, (S)-2-(6-Amino-5-(2-(2-chloro-6-methylbenzyl)-1,2,3,4-tetrahydroisoquinolin-6-yl)-4-(4,4-dimethylpiperidin-1-yl)-2-methylpyridin-3-yl)-2-(tert-butoxy)acetic acid]: under setting [1], the EC50 is below 0.1 µM. With `Cc1cc(F)ccc1CN1CCc2cc(-c3c(COC4CCOCC4)nc(C)c([C@H](OC(C)(C)C)C(=O)O)c3N3CCC(C)(C)CC3)ccc2C1` [Example 155, (S)-2-(tert-Butoxy)-2-(4-(4,4-dimethylpiperidin-1-yl)-5-(2-(4-fluoro-2-methylbenzyl)-1,2,3,4-tetrahydroisoquinolin-6-yl)-2-methyl-6-(((tetrahydro-2H-pyran-4-yl)oxy)methyl)pyridin-3-yl)acetic acid], the EC50 was below 0.1 µM under setting [1] and 0.001 µM under setting [2].

Consider `Cc1cc(F)ccc1CN1CCc2cc(-c3c(C(C)O)nc(C)c([C@H](OC(C)(C)C)C(=O)O)c3N3CCC(C)(C)CC3)ccc2C1` (single isomer, unassigned) [Example 153], for which, under setting [3], the EC50 was below 0.1 µM. Turning to `Cc1nc(CN(C)CC2CCCCC2)c(-c2ccc(OCCc3ccc(F)cc3)cc2)c(N2CCC(C)(C)CC2)c1[C@H](OC(C)(C)C)C(=O)O` [Example 100, (S)-2-(tert-Butoxy)-2-(6-(((cyclohexylmethyl)(methyl)amino)methyl)-4-(4,4-dimethylpiperidin-1-yl)-5-(4-(4-fluorophenethoxy)phenyl)-2-methylpyridin-3-yl)acetic acid], the EC50 runs as follows: under setting [1], below 0.1 µM; under setting [2], 0.003 µM.
